The values below come from PubChem BioAssay (NCI).

Each structure is given as a SMILES string. Values joined by “and” are separate entries in the source; they are usually repeats but may differ in a detail not shown here. Identical values can stand only once.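 Step 1: Grow cells in 96-well plates. Step 2: Expose to compound for 48 hours at 5 concentrations. Step 3: Interpolate endpoints linearly; if unreached, use highest concentration. GI50 marks 50% less growth. TGI: total growth inhibition.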

Some test systems named below: NCI-H460 lung; K-562 leukemia; T-47D breast; SK-OV-3 ovarian; BT-549 breast; OVCAR-8 ovarian; CAKI-1 renal; UACC-257 melanoma; OVCAR-3 ovarian; MCF7 breast.
What all share (experiment): NCI tumour cell line growth inhibition, 48 h

As to `COc1ccc(Cn2cc3c(c2-c2ccccc2)CCc2cnoc2-3)cc1`, the GI50 in the test with NCI-H460 lung was 0.25 µM; in the test on K-562 leukemia it was 0.0404 µM; in the test with T-47D breast, 1.32 µM; with SK-OV-3 ovarian, 0.226 µM; in the test on BT-549 breast, 0.389 µM; with OVCAR-8 ovarian, 0.416 µM. Also, the GI50 was 0.0883 µM with CAKI-1 renal, 27.4 µM in the test on UACC-257 melanoma, 0.137 µM in the test with OVCAR-3 ovarian and 0.0391 µM with MCF7 breast. Further, the TGI in the test on NCI-H460 lung is 2.12 µM; in the test on K-562 leukemia it was > 100 µM; in the test on T-47D breast, > 100 µM; with SK-OV-3 ovarian it was > 100 µM; with BT-549 breast, > 100 µM; with OVCAR-8 ovarian it was > 100 µM. Also, the TGI with CAKI-1 renal was > 100 µM; in the test on UACC-257 melanoma, > 100 µM; in the test on OVCAR-3 ovarian, 0.509 µM; with MCF7 breast, > 100 µM.

As for `O=CNC(Cc1cnc[nH]1)C(=O)O` (stereo not drawn), the TGI in the test on NCI-H460 lung, in the test with K-562 leukemia, in the test with T-47D breast, in the test on SK-OV-3 ovarian, in the test with BT-549 breast and in the test on OVCAR-8 ovarian was > 100 µM in each case. In addition, the TGI in the test with CAKI-1 renal, in the test with UACC-257 melanoma, with OVCAR-3 ovarian and with MCF7 breast was > 100 µM each time.

As for `CNC(=O)[C@H](Cc1c[nH]c2ccccc12)NC(=O)[C@@H](CC(=O)NO)CC(C)C`, the GI50 in the test with NCI-H460 lung was > 25 µM; with K-562 leukemia, 21.6 µM; with T-47D breast it was > 25 µM; with SK-OV-3 ovarian it was > 25 µM; in the test with BT-549 breast it was > 25 µM; in the test with OVCAR-8 ovarian, > 25 µM. The GI50 in the test on CAKI-1 renal, with UACC-257 melanoma, in the test with OVCAR-3 ovarian and in the test with MCF7 breast was > 25 µM each time. The TGI in the test on NCI-H460 lung, with K-562 leukemia, with T-47D breast, in the test with SK-OV-3 ovarian, in the test on BT-549 breast and in the test with OVCAR-8 ovarian was > 25 µM each time. The TGI in the test with CAKI-1 renal, with UACC-257 melanoma, in the test with OVCAR-3 ovarian and with MCF7 breast was > 25 µM throughout.

As for `COc1ccc(C2=C(c3ccc(OC)cc3)C(=O)OC2)cc1`, the GI50 was 0.893 µM in the test on NCI-H460 lung; 1.24 µM in the test with K-562 leukemia; 8.89 µM in the test with T-47D breast; 2.2 µM in the test on SK-OV-3 ovarian; 11.7 µM with BT-549 breast; 1.35 µM in the test with OVCAR-8 ovarian. For the same molecule, the GI50 in the test on CAKI-1 renal was 0.489 µM; with UACC-257 melanoma, 40.1 µM; with OVCAR-3 ovarian, 0.216 µM; in the test on MCF7 breast it was 0.492 µM. The TGI in the test on NCI-H460 lung is 17.7 µM; with K-562 leukemia, 24.3 µM; in the test on T-47D breast it was > 65.6 µM; with SK-OV-3 ovarian, > 100 µM; in the test on BT-549 breast, > 100 µM; in the test with OVCAR-8 ovarian, > 52.3 µM. The TGI in the test on CAKI-1 renal is 14.8 µM; with UACC-257 melanoma it was > 100 µM; in the test with OVCAR-3 ovarian, 0.712 µM; in the test with MCF7 breast, 16.2 µM.

Consider `O=C1c2ccccc2C(=O)N1c1ccc(Cc2ccc(N3C(=O)c4ccccc4C3=O)cc2)cc1`, for which the TGI with NCI-H460 lung, with K-562 leukemia, in the test on T-47D breast, in the test with SK-OV-3 ovarian, in the test on BT-549 breast and in the test on OVCAR-8 ovarian was > 100 µM each time. For the same molecule, the TGI with CAKI-1 renal, in the test with UACC-257 melanoma, with OVCAR-3 ovarian and with MCF7 breast was > 100 µM each time.

On to `CN(C)S(=O)(=O)c1cccc(C(=O)Nc2nc(-c3ccc(F)c(F)c3)cs2)c1`, for which the GI50 with NCI-H460 lung is 12.8 µM; in the test with K-562 leukemia, 5.1 µM; in the test on T-47D breast, 3.77 µM; in the test with SK-OV-3 ovarian, 35.7 µM; with BT-549 breast it was 3.88 µM; in the test on OVCAR-8 ovarian it was 8.28 µM. Besides, the GI50 in the test on CAKI-1 renal is 10.9 µM; with UACC-257 melanoma, 6.24 µM; with OVCAR-3 ovarian, 18.4 µM; in the test on MCF7 breast it was 6.01 µM. For the same molecule, the TGI in the test with NCI-H460 lung was > 100 µM; in the test on K-562 leukemia it was > 100 µM; in the test with T-47D breast it was > 100 µM; with SK-OV-3 ovarian, > 100 µM; in the test on BT-549 breast, > 27.4 µM; in the test on OVCAR-8 ovarian it was > 100 µM. The TGI in the test with CAKI-1 renal was > 75.9 µM; with UACC-257 melanoma, > 100 µM; with OVCAR-3 ovarian, > 95.4 µM; in the test with MCF7 breast, > 65 µM.

With `CCc1nc(N)nc(N)c1C#CC(C)c1ccc(-c2ccncc2)cc1Cl` (stereo not drawn), the GI50 is < 0.005 µM in the test with NCI-H460 lung; < 0.005 µM with K-562 leukemia; 0.0896 µM and 0.675 µM in the test on T-47D breast; 0.0977 µM and 0.0932 µM in the test on SK-OV-3 ovarian; < 0.005 µM and 0.0299 µM in the test on OVCAR-8 ovarian; 0.0259 µM in the test with CAKI-1 renal. Moreover, the GI50 in the test with UACC-257 melanoma is 0.0286 µM and 0.0348 µM; in the test with OVCAR-3 ovarian, 0.0421 µM and 0.098 µM; with MCF7 breast, 0.0144 µM and 0.0328 µM. Moreover, the TGI was 28.5 µM and 15.2 µM in the test with K-562 leukemia; 2.2 µM and 13.6 µM with T-47D breast; 2.63 µM and 14.6 µM with SK-OV-3 ovarian; 2.8 µM and 12.1 µM in the test on BT-549 breast; 7.66 µM and 37.7 µM in the test with OVCAR-8 ovarian; 5.07 µM in the test with CAKI-1 renal. The TGI is 2.34 µM and 12.1 µM in the test with UACC-257 melanoma; 2.06 µM and 13.3 µM in the test on OVCAR-3 ovarian; 4.31 µM and 12.1 µM in the test on MCF7 breast.

Consider `Cc1cc(NC(=O)NCCOc2ccc(N3C(N)=NC(N)=NC3(C)C)cc2Cl)ccc1S(=O)(=O)F`, for which the GI50 was 0.391 µM in the test with NCI-H460 lung; 0.599 µM in the test on K-562 leukemia; 5.13 µM in the test on T-47D breast; 12 µM in the test with SK-OV-3 ovarian; 6.31 µM in the test with BT-549 breast; 4.91 µM with OVCAR-8 ovarian. Also, the GI50 with CAKI-1 renal was 55.4 µM; in the test with UACC-257 melanoma, 4.1 µM; with OVCAR-3 ovarian, 5.24 µM; with MCF7 breast, 1.7 µM. Also, the TGI in the test on NCI-H460 lung is 17.6 µM; in the test on K-562 leukemia, > 100 µM; with T-47D breast, 74.9 µM; in the test on SK-OV-3 ovarian, > 100 µM; in the test with BT-549 breast, > 76.8 µM; with OVCAR-8 ovarian, > 100 µM. Moreover, the TGI in the test with CAKI-1 renal is > 100 µM; in the test with UACC-257 melanoma, > 49.1 µM; in the test on OVCAR-3 ovarian, > 71 µM; in the test on MCF7 breast, 50.3 µM.
